Key:
[1] = system: downy mildew (P. viticola) strains PV221, PV413-1, PV1538-1; assay: In vitro efficacy test on vine leaf discs (Example 2); assay type: cell-based, Plasmopara viticola; settings: mean over downy mildew strains; Example 2 method
[2] = system: downy mildew, powdery mildew and vine rot

Mean IC50 (CI 50) [1] [µg/mL]	Mean MIC (CMI) [1] [µg/mL]	SMILES	effect on phytopathogens, in words [2]
1850	10000	O=C([O-])O.[Na+] [NaHCO3, sodium bicarbonate]	–
1000	5600	O=C([O-])O.[K+] [KHCO3, potassium bicarbonate]	significant

From patent US20240358021A1, “COMPOSITION COMPRISING POTASSIUM BICARBONATE AND USE THEREOF FOR TREATING AND/OR PROTECTING CROPS” (SCEA DU CHATEAU MONTROSE, priority 2021, published 2024)
